Assay results reported in patent publication US6465509B2, “Pyrones as inhibitors of cyclooxygenase-2” (Merck Frosst Canada & Co., priority 2000, dated 2002).

How the values were obtained:
COX-2 [1] = biological target: T1, COX-2 (Homo sapiens, UniProt P35354); assay: Whole cell assay for COX-2 using CHO[hCOX-2] transfected cell line; type: cell-based; parameters: expressed in transfected cells; host or cells: CHO cells stably transfected with pCDNAIII (CHO[hCOX-2]); conditions: CHO[hCOX-2] cells, PGE2 synthesis, 10 μM AA
T1 sequence (P35354 18-604): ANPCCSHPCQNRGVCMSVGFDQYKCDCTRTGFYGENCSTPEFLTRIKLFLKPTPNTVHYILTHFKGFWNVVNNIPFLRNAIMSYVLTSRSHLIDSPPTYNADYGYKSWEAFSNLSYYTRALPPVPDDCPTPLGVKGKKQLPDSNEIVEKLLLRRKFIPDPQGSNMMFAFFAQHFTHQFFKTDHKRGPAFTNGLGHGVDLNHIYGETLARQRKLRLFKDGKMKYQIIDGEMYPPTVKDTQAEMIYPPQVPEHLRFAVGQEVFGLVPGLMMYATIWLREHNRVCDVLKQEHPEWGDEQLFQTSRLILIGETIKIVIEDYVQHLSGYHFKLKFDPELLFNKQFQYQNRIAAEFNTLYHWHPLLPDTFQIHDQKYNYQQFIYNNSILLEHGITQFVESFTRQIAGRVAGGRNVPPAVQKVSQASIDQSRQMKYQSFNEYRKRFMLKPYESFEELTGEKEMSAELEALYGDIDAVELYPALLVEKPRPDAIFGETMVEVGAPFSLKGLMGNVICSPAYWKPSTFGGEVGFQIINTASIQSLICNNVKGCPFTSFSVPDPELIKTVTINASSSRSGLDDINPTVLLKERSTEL
Description: Whole cell assays for COX-2 and COX-1 using CHO transfected cell lines
Chinese hamster ovary (CHO) cell lines which have been stably transfected with an eukaryotic expression vector pCDNAIII containing either the human COX-1 or COX-2 cDNA's are used for the assay. These cell lines are referred to as CHO[hCOX-1] and CHO[hCOX-2], respectively. For cyclooxygenase assays, CHO[hCOX-1] cells from suspension cultures and CHO[hCOX-2] cells prepared by trypsinization of adherent cultures are harvested by centrifugation (300×g, 10 min) and washed once in HBSS containing 15 mM HEPES, pH 7.4, and resuspended in HBSS, 15 mM HEPES, pH 7.4, at a cell concentration of 1.5×10^6 cells/ml. Drugs to be tested are dissolved in DMSO to 66.7-fold the highest test drug concentration. Compounds are typically tested at 8 concentrations in duplicate using serial 3-fold serial dilutions in DMSO of the highest drug concentration. Cells (0.3×10^6 cells in 200 μl) are preincubated with 3 μl of the test drug or DMSO vehicle for 15 min at 37° C. Working solutions of peroxide-free AA (5.5 μM and 110 μM AA for the CHO[hCOX-1] and CHO[COX-2] assays, respectively) are prepared by a 10-fold dilution of a concentrated AA solution in ethanol into HBSS containing 15 mM HEPES, pH 7.4. Cells are then challenged in the presence or absence of drug with the AA/HBSS solution to yield a final concentration of 0.5 μM AA in the CHO[hCOX-1] assay and a final concentration of 10 μM AA in the CHO[hCOX-2] assay. The reaction is terminated by the addition of 10 μl 1N HCl followed by neutralization with 20 μl of 0.5N NaOH. The samples are centrifuged at 300×g at 4° C. for 10 min, and an aliquot of the clarified supernatant is appropriately diluted for the determination of PGE2 levels using an enzyme-linked immunoassay for PGE2 (Correlate PGE2 enzyme immunoassay kit, Assay Designs, Inc.). Cyclooxygenase activity in the absence of test compounds is determined as the difference in PGE2 levels of cells challenged with arachidonic acid versus the PGE2 levels in cells mock-challenged with ethanol vehicle. Inhibition of PGE2 synthesis by test compounds is calculated as a percentage of the activity in the presence of drug versus the activity in the positive control samples.
Compounds of the present invention are inhibitors of cyclooxygenase-2 and are thereby useful in the treatment of cyclooxygenase-2 mediated diseases as enumerated above. The activities of the compounds against cyclooxygenase may be seen in the representative results shown below. In the assay, inhibition is determined by measuring the amount of prostaglandin E2 (PGE2) synthesized in the presence of arachidonic acid, cyclooxygenase-1 or cyclooxygenase-2 and a putative inhibitor. The IC50 values represent the concentration of putative inhibitor required to return PGE2 synthesis to 50% of that obtained as compared to the uninhibited control.

COX-2 [2] = biological target: T1, COX-2; assay: Human whole blood assay, COX-2 (LPS-induced PGE2 production); type: cell-based; parameters: endogenous in cells; host or cells: fresh heparinized human whole blood from volunteers, incubated with LPS; conditions: LPS-induced PGE2, 24 hours at 37° C., read-out: COX-2 (IC50 μM) HWB
Protocol: Human whole blood provides a protein and cell-rich milieu appropriate for the study of biochemical efficacy of anti-inflammatory compounds such as selective COX-2 inhibitors. […] This is consistent with the observation that COX-2 inhibitors have no effect on PGE2 production in normal blood. These inhibitors are active only after incubation of human whole blood with LPS, which induces COX-2. This assay can be used to evaluate the inhibitory effect of selective COX-2 inhibitors on PGE2 production. As well, platelets in whole blood contain a large amount of the COX-1 enzyme. Immediately following blood clotting, platelets are activated through a thrombin-mediated mechanism. This reaction results in the production of thromboxane B2 (TxB2) via activation of COX-1. Thus, the effect of test compounds on TxB2 levels following blood clotting can be examined and used as an index for COX-1 activity. Therefore, the degree of selectivity by the test compound can be determined by measuring the levels of PGE2 after LPS induction (COX-2) and TxB2 following blood clotting (COX-1) in the same assay.
A. COX-2 (LPS-induced PGE2 production)
Fresh blood is collected in heparinized tubes by venipuncture from both male and female volunteers. The subjects have no apparent inflammatory conditions and have not taken any NSAIDs for at least 7 days prior to blood collection. Plasma is immediately obtained from a 2 mL blood aliquot to use as blank (basal levels of PGE2). The remaining blood is incubated with LPS (100 μg/ml final concentration, Sigma Chem, #L-2630 from E. coli; diluted in 0.1% BSA (Phosphate buffered saline) for 5 minutes at room temperature. Five hundred μL aliquots of blood are incubated with either 2 μL of vehicle (DMSO) or 2 μL of a test compound at final concentrations varying from 10 nM to 30 μM for 24 hours at 37° C. At the end of the incubation, the blood is centrifuged at 12,000×g for 5 minutes to obtain plasma. A 100 μL aliquot of plasma is mixed with 400 μL of methanol for protein precipitation. The supernatant is obtained and is assayed for PGE2 using a radioimmunoassay kit (Amersham, RPA#530) after conversion of PGE2 to its methyl oximate derivative according to the manufacturer's procedure.

An IC50 (COX-2 [1]) of 0.37 µM and an IC50 (COX-2 [2]) of 10.5 µM were found for `CS(=O)(=O)c1ccc(-c2cc(CC(F)(F)F)oc(=O)c2-c2ccccc2)cc1` [Example 13, 4-(4-Methylsulfonyl)phenyl-3-phenyl-6-(2,2,2-trifluoroethyl)-pyran-2-one] in this work.
